The values that follow come from US20100330128A1, “Method of improving immune function in mammals using lactobacillus strains with certain lipids” (priority 2005, published 2010).

This assay relates to lymphocytes separated from spleen and thymus. Put plainly: Lymphocyte proliferation assay (alamar blue). The assay is classed as cell-based, BALB/c mice. To be noted: 72 hours after addition of stimulant, FIG. 2. As for the experimental part:
Lymphocytes were prepared from the spleen and thymus of BALB/c mice and were incubated with supernatants derived from growing L. reuteri ATCC 55730 in the presence and absence of glycerol (50 mM). L. reuteri ATCC 55730 was selected as it is a known good producer of 3-HPA and thus follows the selection criteria of the invention. Control incubations were performed with glycerol alone, media alone and known lymphocyte proliferation stimulants.
Separation of spleen and thymus lymphocytes. BALB/c mice were sacrificed by cervical dislocation, and their thymus was separated, immersed in Hanks' balanced salt solution (HBSS) and torn piecemeal to obtain a single cell. The single cell was centrifuged through double layers in Histopaque-1083 (Sigma) to obtain lymphocytes. These cells were washed two times with IMDM, and living cells were counted according to tryphan blue exclusion technique and used in the experiment at an adjusted final concentration of 1×10^7/mL.
Preparation of bacterial lysates. L. reuteri and Listeria monocytogenes lysates were prepared as mentioned in the phagocytic assay.
Preparation of L. reuteri supernatants. L. reuteri supernatant was also prepared as mentioned in the phagocytic assay.
Lymphocyte proliferation assay. Lymphocyte proliferation assay was carried out using lymphocytes suspended in IMDM+10% horse serum at 4×10^6 per well. The lymphocytes were treated with varying concentrations of L. reuteri, L. monocytogenes cell lysate and L. reuteri supernatant along with a reference stimulant, of which concentrations and conditions were as follows:
In the results reported in Table 2, MRS and glycerol sol. controls were used by adjusting pH in broths which were not incubated with L. reuteri, and the following symbols used: ConA: concanavalin A, PWM: pokeweed mitogen, PHA: phytohemaaglutinin, LPS: liphopholysaccharide from Salmonella enterica serovar Typhimurium.
Stimulants including ConA were added into a well containing lymphocytes in accordance with each condition, 3 hours before alamar blue was added at 10% concentration. 72 hours after the addition of each stimulant, the level of lymphocyte proliferation was determined by the value of OD570 nm-OD600 nm.
The result of lymphocyte proliferation was represented as Stimulation Index (SI), which is (ODtreatment-ODmedia control)/ODcell control value. In the case of L. reuteri supernatant treatment group, however, values of J and K treatment groups, but not IMDM+10% horse serum, were used as OD media control value.
Background: Resazurin is reduced to fluorescent resorufin, in cell work by metabolically active cells.

As for concanavalin A [ConA], the “lymphocyte proliferation (Stimulation Index)” value was “marked stimulation of lymphocyte proliferation”.
For “liphopholysaccharide from Salmonella enterica serovar Typhimurium [LPS]” the value was “marked stimulation of lymphocyte proliferation”.
In the case of phytohemaaglutinin [PHA], the “lymphocyte proliferation (Stimulation Index)” value is “marked stimulation of lymphocyte proliferation”.
For pokeweed mitogen [PWM] the value was “marked stimulation of lymphocyte proliferation”.
